# In patent US20230371510A1, “APPLICATION OF PYRROLE-2-CARB[…] CONTROLLING PLANT ROOT-KNOT NEMATODES” (Yunnan University, priority 2022, published 2023):
# Read-outs that look alike come from different tables or passages of the source.
# Key:
# Assay type in all cases: in vivo
# [1] = system: Meloidogyne javanica; test: Nematicidal (insecticidal) mortality assay in well plate; settings: 48 h
# Description: (§1) 0.5 mg-1.5 mg of pyrrole-2-carboxaldehyde was dissolved in methanol and diluted with sterile distilled water as the test liquid. The dilution concentrations of each liquid medicine were 12.5 μg/ml, 25 μg/ml, 50 μg/ml, 100 μg/ml, 200 μg/ml and 400 μg/ml respectively, and the mass concentration of methanol in each liquid medicine was 5%. Water containing 5% methanol was used as a blank control.
# (§2) In addition, root-knot nematodes such as Meloidogyne hapla, Meloidogyne javanica and Meloidogyne arenaria were also prepared for testing.
# (§3) 200 μl of the above test liquid was added to a 20-well plate with 100-150 live nematodes and placed at 25° C. Subsequently, the nematodes were examined under an optical microscope at 12 h, 24 h and 48 h, respectively, to calculate the mortality. Method for identification of mortality: 1-5 drops of 5% NaCl solution were added to the wells of the treatment plate and observed after 2 minutes; Dead nematodes were stiff and unresponsive to stimulation with a needle, while surviving nematodes were curled or wriggled.
# (§4) The whole experiment was repeated three times with the test liquid without samples as the control, and the average value was taken three times to calculate the corrected mortality.
# (§5) Mortality %=(number of dead nematodes/(number of dead nematodes+number of surviving nematodes))×100%
# (§6) Corrected mortality %=sample mortality−control mortality
# [2] = system: Meloidogyne arenaria; test: as above; settings: 48 h
# Description: as §1, §2, §3, §4, §5, §6
# [3] = system: Meloidogyne hapla; test: as above; settings: 48 h
# Description: as §1, §2, §3, §4, §5, §6
# [4] = system: Meloidogyne incognita; test: Nematicidal (insecticidal) mortality assay on second instar larvae in well plate; settings: for mortality at 12.5 µg/mL: 12.5 μg/ml; for mortality at 12.5 µg/mL / mortality at 25 µg/mL / mortality at 50 µg/mL / mortality at 100 µg/mL / mortality at 200 µg/mL / mortality at 400 µg/mL: 25° C, read-out: Corrected mortality (%); for mortality at 25 µg/mL: 25 μg/ml; for mortality at 50 µg/mL: 50 μg/ml; for mortality at 100 µg/mL: 100 μg/ml; for mortality at 200 µg/mL: 200 μg/ml; for mortality at 400 µg/mL: 400 μg/ml; for LC50: calculated with SPSS 26.0
# Description: as §1
# The infected tomato roots with Meloidogyne incognita were washed with water, and the oocysts of Meloidogyne incognita were picked by a dissecting needle and placed in 0.4 M KCl solution. The oocysts were washed and disinfected in a 5 ml centrifuge tube with 4 ml sterile water (three times), 1 ml sterile penicillin-streptomycin double antibody solution and 3 ml 0.1% NaClO solution, and the supernatant was removed in each step by short centrifugation (8000 rpm for 30 seconds). The washed eggs were incubated in 0.4 M ZnCl2 solution for 48 h, and the second instar larvae were collected in a 1.5 ml centrifuge tube with a pipette and enriched by short centrifugation (5000 rpm for 30 seconds) for subsequent use.
# as §3, with “Subsequently, the nematodes were examined under an optical microscope at 12 h, 24 h and 48 h, respectively, to calculate the mortality.” left out
# as §4, §5, §6
smiles,measurement,setting,value
O=Cc1ccc[nH]1 [pyrrole-2-carboxaldehyde],LC50,[1],33.6 µg/mL
same,LC50,[2],31 µg/mL
same,LC50,[3],31.6 µg/mL
same,mortality at 12.5 µg/mL,[4]; 12 h,6.99 ± 1.99%
same,mortality at 12.5 µg/mL,[4]; 24 h,16.6 ± 3.58%
same,mortality at 12.5 µg/mL,[4]; 36 h,24.9 ± 4.7%
same,mortality at 12.5 µg/mL,[4]; 48 h,30.3 ± 4.57%
same,mortality at 12.5 µg/mL,[4]; 72 h,36.1 ± 5.08%
same,mortality at 25 µg/mL,[4]; 12 h,15.8 ± 0.29%
same,mortality at 25 µg/mL,[4]; 24 h,26.5 ± 0.53%
same,mortality at 25 µg/mL,[4]; 36 h,36.3 ± 0.95%
same,mortality at 25 µg/mL,[4]; 48 h,42.1 ± 1.51%
same,mortality at 25 µg/mL,[4]; 72 h,48.5 ± 0.78%
same,mortality at 50 µg/mL,[4]; 12 h,22.4 ± 0.43%
same,mortality at 50 µg/mL,[4]; 24 h,36.63 ± 0.19%
same,mortality at 50 µg/mL,[4]; 36 h,53.4 ± 3.16%
same,mortality at 50 µg/mL,[4]; 48 h,56.6 ± 0.63%
same,mortality at 50 µg/mL,[4]; 72 h,63.2 ± 0.99%
same,mortality at 100 µg/mL,[4]; 12 h,24.3 ± 2.78%
same,mortality at 100 µg/mL,[4]; 24 h,38.7 ± 2%
same,mortality at 100 µg/mL,[4]; 36 h,62 ± 0.85%
same,mortality at 100 µg/mL,[4]; 48 h,83.2 ± 1.29%
same,mortality at 100 µg/mL,[4]; 72 h,88.27 ± 0.56%
same,mortality at 200 µg/mL,[4]; 12 h,34.2 ± 1.74%
same,mortality at 200 µg/mL,[4]; 24 h,64.3 ± 0.9%
same,mortality at 200 µg/mL,[4]; 36 h,79.29 ± 0.7%
same,mortality at 200 µg/mL,[4]; 48 h,93.3 ± 2.24%
same,mortality at 200 µg/mL,[4]; 72 h,94.5 ± 1.89%
same,mortality at 400 µg/mL,[4]; 12 h,47.5 ± 4.35%
same,mortality at 400 µg/mL,[4]; 24 h,77.42 ± 0.58%
same,mortality at 400 µg/mL,[4]; 36 h,93.2 ± 0.82%
same,mortality at 400 µg/mL,[4]; 48 h,98.01 ± 0.2%
same,mortality at 400 µg/mL,[4]; 72 h,99.26 ± 0.34%
same,LC50,[4]; 24 h,84.7 µg/mL
same,LC50,[4]; 48 h,30.7 µg/mL
